Source: ChEMBL document CHEMBL3853271, “Recent progress towards an effective treatment of amyotrophic lateral sclerosis using the SOD1 mouse model in a preclinical setting” (2016)

Assays:
Mus musculus [1] = test: Neuroprotective activity in transgenic mouse amyotrophic lateral sclerosis model harboring human SOD1 H46R mutant assessed as increase in survival rate at 0.1 mg/kg, ig administered daily starting at day of disease onset until disease end stage relative to control; type: functional
Mus musculus [2] = test: (§1) Neuroprotective activity in transgenic mouse amyotrophic lateral sclerosis model harboring human SOD1 H46R mutant assessed as increase in survival rate at 0.5 mg/kg, ig administered daily starting at day of disease onset until disease end stage relative to control; type: functional
Mus musculus [3] = test: as §1, with “ChAT-positive motor neurons loss” for “increase”, “anterior horn” for “survival rate”, “by immunostaining method (reference value: 43%)” for “relative to control”; type: functional
Mus musculus [4] = test: (§2) Neuroprotective activity in transgenic mouse amyotrophic lateral sclerosis model harboring SOD1 G94A mutant assessed as prolongation of survival at 10 ug/kg, administered through gastric tube daily started between day 88 to 106 of disease onset until disease end stage relative to control; type: functional
Mus musculus [5] = test: as §2, with “harboring human” for “harboring”, “H46R” for “G94A”, “1 to 100” for “10”, “121” for “88”, “130” for “106”; type: functional, Stomach
Mus musculus [6] = test: Neuroprotective activity in transgenic mouse amyotrophic lateral sclerosis model harboring SOD1 G93A mutant assessed as increase in survival rate at 60 mg/kg, administered via oral gavage started from first day of symptomatic onset until disease end stage relative to control; type: functional
Mus musculus [7] = test: (§3) Neuroprotective activity in transgenic mouse amyotrophic lateral sclerosis model harboring SOD1 G93A mutant assessed as death of motor neurons in lumbar spinal cord at 10 mg/kg, po measured at 7 days post disease onset by immunostaining method (reference value: 58%); type: functional
Mus musculus [8] = test: as §3, with “4” for “10”, “ip administered every other day started from postnatal day 40 until” for “po measured at 7 days post”, “end stage” for “onset”, “71%)” for “58%)”; type: functional
Mus musculus [9] = test: (§4) Neuroprotective activity in transgenic C57/BL6 mouse amyotrophic lateral sclerosis model harboring SOD1 G93A mutant assessed as decrease in misfolded SOD1 levels in spinal cord at 4 mg/kg, ip administered twice weekly started from postnatal day 40 until disease end stage by immunoprecipitation method relative to control; type: functional; design: scale not given: the % may be the effect or the level left
[10] = as §4, with “upregulation of HSP70” for “decrease in misfolded SOD1”, “Western blot” for “immunoprecipitation”; type: functional, organism-based
[11] = as §4, with “upregulation of HSP25” for “decrease in misfolded SOD1”, “Western blot” for “immunoprecipitation”; type: functional, organism-based

For `Cc1cc(C)c(OCC(=O)Nc2nc(-c3ccccn3)cs2)c(C)c1`, which Activity (Mus musculus [1]) is on record?
The Activity was 11%.

And the Activity (Mus musculus [2])?
Its Activity is 16%.

What about the Activity (Mus musculus [3]) of the same compound?
The Activity was 23%.

With `Cc1cc(C)c(N(C)CC(=O)Nc2nc(-c3ccccn3)c[nH]2)c(C)c1.Cl.Cl.Cl` as the compound, how does the Activity (Mus musculus [4]) read?
The Activity was 14%.

And the Activity (Mus musculus [5])?
The Activity was 20%.

Which Activity (Mus musculus [6]) does the source give for `CCCCC1OC(=O)c2ccccc21` (racemic) [RAC-3-N-BUTYLPHTHALIDE] here?
Its Activity is 42%.

With `O=C(/C=C/c1ccc(O)c(O)c1)OCCc1ccccc1` [CAFFEIC ACID PHENETHYL ESTER] as the compound, how does the Activity (Mus musculus [7]) read?
The Activity was 10%.

For `N=C(N)N/N=C/c1c(Cl)cccc1Cl` [GUANABENZ], which Activity (Mus musculus [8]) is on record?
The Activity was 44%.

What does the source list for `CC1=C(CO)C(=O)O[C@@H]([C@@H](C)[C@H]2CC[C@H]3[C@@H]4C[C@H]5O[C@]56[C@@H](O)C=CC(=O)[C@]6(C)[C@H]4CC[C@]23C)C1` [WITHAFERIN A]?
Activity (Mus musculus [9]): 39%; fold change (FC) [10]: 2.2; fold change (FC) [11]: 2.6
